ChEMBL document CHEMBL5465560, “Selectivity Literature for EUbOPEN Chemogenomic Library” (2024)
Each block holds one compound with its values, some of them ahead of it.

How the values were obtained:
[1] = biological target: Phosphorylase b kinase gamma catalytic chain, skeletal muscle/heart isoform (Homo sapiens) (UniProt Q16816); assay: Selectivity interaction (Ambit KINOMEscan and KiNATiv profiling in Jurkat cells) EUB0000090b PHKG1; assay type: cell-based; settings: at 1 µM
[2] = tested on: Proto-oncogene tyrosine-protein kinase receptor Ret (Homo sapiens), P07949 [G691S]; assay: (§1) Selectivity interaction (LanthaScreen Eu Kinase Binding Assay) EUB0001632a RET; settings: at 10 µM
[3] = tested on: Proto-oncogene tyrosine-protein kinase receptor Ret (Homo sapiens), P07949 [V804M]; assay: as §1; settings: at 10 µM
[4] = tested on: Proto-oncogene tyrosine-protein kinase receptor Ret (Homo sapiens), P07949 [M918T]; assay: as §1; settings: at 10 µM
[5] = biological target: T1, Serine/threonine-protein kinase DCLK2 (Homo sapiens) (UniProt Q8N568); assay: Selectivity interaction (Kinase panel (Z-LYTE Assay)) EUB0001632a DCLK2; settings: at 10 µM
T1 sequence (whole entry): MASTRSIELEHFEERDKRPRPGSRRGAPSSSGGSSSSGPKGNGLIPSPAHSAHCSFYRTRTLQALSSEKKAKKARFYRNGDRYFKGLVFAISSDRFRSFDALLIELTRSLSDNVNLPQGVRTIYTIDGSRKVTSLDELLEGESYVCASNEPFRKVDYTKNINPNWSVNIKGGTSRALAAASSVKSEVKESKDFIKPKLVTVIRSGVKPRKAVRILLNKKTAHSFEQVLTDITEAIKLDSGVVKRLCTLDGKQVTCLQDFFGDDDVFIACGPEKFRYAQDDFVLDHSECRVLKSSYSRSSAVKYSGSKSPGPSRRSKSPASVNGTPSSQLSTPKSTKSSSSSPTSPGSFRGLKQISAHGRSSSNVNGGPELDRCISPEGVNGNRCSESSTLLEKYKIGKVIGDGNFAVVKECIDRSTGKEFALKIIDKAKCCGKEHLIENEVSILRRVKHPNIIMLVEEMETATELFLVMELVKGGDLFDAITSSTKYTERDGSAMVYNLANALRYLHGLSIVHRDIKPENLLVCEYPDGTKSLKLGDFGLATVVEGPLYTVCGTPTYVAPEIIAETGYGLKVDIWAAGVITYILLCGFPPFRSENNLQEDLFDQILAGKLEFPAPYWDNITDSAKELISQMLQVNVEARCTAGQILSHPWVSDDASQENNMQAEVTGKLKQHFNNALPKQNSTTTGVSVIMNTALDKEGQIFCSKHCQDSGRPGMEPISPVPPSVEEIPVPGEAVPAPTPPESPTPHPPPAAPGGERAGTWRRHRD

[6] = biological target: T2, Serine/threonine-protein kinase TAO3 (Homo sapiens) (UniProt Q9H2K8); assay: Selectivity interaction (KinomeScan (DiscoverX)) EUB0001079a TAOK3; settings: at 1 µM
T2 sequence (whole entry): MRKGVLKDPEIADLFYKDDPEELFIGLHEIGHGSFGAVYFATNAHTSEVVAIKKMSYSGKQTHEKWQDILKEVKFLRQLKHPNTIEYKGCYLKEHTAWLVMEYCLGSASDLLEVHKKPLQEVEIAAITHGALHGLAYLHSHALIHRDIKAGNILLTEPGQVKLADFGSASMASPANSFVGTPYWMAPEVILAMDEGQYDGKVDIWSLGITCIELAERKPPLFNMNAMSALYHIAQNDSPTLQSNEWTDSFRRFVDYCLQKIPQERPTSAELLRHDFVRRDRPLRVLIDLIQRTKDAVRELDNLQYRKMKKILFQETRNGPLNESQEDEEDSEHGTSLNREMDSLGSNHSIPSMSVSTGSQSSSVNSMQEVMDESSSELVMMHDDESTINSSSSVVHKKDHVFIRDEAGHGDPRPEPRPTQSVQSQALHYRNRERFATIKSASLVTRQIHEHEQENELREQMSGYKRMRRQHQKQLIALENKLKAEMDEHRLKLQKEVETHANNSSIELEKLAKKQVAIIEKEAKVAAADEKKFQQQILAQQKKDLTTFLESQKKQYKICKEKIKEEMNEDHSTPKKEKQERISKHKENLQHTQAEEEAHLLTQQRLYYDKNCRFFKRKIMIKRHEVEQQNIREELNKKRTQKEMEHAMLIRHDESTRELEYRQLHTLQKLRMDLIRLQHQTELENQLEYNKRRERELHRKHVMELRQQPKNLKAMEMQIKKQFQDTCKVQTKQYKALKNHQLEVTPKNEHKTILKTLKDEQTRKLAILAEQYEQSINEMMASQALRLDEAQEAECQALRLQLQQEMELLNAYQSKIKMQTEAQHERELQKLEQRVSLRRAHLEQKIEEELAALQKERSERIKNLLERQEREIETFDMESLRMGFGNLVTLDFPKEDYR

[7] = biological target: Cyclin-dependent kinase 8 (Homo sapiens, UniProt P49336); assay: Selectivity interaction (ActivX KiNativ screen (ex vivo kinase selectivity in human PBMCs)) EUB0001619a CDK8; assay type: cell-based; settings: PBMC, at 1 µM
[8] = biological target: Casein kinase I isoform delta (Homo sapiens, UniProt P48730); assay: Selectivity interaction (KinomeScan (DiscoverX)) EUB0000607a CSNK1D; settings: at 10 µM
[9] = biological target: G protein-coupled receptor kinase 4 (Homo sapiens) (UniProt P32298); assay: Selectivity interaction (KinomeScan (DiscoverX)) EUB0000607a GRK4; settings: at 10 µM
[10] = biological target: Serine/threonine-protein kinase 26 (Homo sapiens, UniProt Q9P289); assay: Selectivity interaction (KinomeScan (DiscoverX)) EUB0000666a STK26; settings: at 10 µM
Serine/threonine-protein kinase 26, sequence (Q9P289 2-416 limits assumed): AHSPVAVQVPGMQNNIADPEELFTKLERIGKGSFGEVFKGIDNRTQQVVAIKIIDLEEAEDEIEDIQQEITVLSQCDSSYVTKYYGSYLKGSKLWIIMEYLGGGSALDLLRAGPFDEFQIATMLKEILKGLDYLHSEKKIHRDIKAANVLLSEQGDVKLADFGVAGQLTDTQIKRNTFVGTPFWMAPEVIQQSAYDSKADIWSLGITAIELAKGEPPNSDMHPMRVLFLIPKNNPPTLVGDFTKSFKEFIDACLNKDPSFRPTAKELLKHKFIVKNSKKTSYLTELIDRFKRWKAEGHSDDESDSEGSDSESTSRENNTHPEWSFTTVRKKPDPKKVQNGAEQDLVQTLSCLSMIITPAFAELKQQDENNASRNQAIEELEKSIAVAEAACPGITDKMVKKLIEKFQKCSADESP

Proto-oncogene tyrosine-protein kinase receptor Ret (Homo sapiens), P07949 [V804M], sequence (P07949 whole entry V804M): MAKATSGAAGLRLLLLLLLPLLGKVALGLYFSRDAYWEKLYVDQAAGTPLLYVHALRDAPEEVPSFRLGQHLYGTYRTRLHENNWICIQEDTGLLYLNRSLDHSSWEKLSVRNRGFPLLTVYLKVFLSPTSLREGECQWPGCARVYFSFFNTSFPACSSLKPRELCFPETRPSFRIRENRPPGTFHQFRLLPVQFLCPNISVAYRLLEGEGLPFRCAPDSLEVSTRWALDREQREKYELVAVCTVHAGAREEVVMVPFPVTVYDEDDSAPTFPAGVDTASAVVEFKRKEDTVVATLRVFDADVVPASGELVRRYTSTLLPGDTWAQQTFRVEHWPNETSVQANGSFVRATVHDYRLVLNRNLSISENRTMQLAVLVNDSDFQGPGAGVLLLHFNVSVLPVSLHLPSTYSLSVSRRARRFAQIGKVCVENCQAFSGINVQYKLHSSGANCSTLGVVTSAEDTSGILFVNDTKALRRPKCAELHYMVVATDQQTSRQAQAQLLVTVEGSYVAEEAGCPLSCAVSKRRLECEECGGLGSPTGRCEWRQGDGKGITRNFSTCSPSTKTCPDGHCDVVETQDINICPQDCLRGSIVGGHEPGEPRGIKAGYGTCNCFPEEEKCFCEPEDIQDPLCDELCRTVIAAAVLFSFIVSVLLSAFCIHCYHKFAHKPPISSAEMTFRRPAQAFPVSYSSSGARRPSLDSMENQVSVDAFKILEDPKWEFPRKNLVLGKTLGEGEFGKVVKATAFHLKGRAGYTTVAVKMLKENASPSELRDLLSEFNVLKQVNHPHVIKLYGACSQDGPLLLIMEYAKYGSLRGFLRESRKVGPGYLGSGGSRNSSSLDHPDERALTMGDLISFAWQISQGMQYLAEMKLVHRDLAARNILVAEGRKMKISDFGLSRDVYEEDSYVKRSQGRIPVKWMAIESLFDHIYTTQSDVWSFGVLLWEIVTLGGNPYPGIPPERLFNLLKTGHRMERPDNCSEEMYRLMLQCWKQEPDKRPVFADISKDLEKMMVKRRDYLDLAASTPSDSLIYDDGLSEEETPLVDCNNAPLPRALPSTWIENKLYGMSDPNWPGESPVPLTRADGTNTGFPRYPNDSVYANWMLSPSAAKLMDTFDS
Proto-oncogene tyrosine-protein kinase receptor Ret (Homo sapiens), P07949 [G691S], sequence (P07949 whole entry G691S): as the sequence (P07949 whole entry V804M) above, with G691S, M804V counted along it
Cyclin-dependent kinase 8, sequence (P49336 whole entry, canonical isoform): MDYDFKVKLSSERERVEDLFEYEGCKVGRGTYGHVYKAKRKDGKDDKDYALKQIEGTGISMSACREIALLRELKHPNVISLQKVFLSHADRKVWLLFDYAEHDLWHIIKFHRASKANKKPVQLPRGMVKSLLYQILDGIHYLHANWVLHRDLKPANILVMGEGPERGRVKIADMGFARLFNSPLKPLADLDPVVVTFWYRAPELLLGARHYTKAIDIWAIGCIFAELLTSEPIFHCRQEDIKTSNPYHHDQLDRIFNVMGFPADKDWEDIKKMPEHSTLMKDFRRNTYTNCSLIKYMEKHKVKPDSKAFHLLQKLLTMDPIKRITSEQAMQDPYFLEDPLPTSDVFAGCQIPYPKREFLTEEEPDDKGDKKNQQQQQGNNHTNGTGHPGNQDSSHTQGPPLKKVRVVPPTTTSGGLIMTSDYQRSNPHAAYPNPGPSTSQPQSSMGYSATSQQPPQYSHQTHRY
Phosphorylase b kinase gamma catalytic chain, skeletal muscle/heart isoform (Homo sapiens), sequence (Q16816 whole entry, looked up, canonical isoform): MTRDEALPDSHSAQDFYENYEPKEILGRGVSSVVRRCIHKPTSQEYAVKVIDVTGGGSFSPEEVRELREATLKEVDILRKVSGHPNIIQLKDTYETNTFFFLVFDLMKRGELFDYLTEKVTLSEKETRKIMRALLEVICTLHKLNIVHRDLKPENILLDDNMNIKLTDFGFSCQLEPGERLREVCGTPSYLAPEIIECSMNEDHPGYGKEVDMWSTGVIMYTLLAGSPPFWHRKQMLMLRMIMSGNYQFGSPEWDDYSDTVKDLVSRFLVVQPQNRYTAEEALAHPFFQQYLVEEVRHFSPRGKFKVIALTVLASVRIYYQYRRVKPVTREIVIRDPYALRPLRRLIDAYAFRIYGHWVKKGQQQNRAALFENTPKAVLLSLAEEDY
Proto-oncogene tyrosine-protein kinase receptor Ret (Homo sapiens), P07949 [M918T], sequence (P07949 whole entry M918T): as the sequence (P07949 whole entry V804M) above, with M804V, M918T counted along it
Casein kinase I isoform delta, sequence (P48730 whole entry, looked up, canonical isoform): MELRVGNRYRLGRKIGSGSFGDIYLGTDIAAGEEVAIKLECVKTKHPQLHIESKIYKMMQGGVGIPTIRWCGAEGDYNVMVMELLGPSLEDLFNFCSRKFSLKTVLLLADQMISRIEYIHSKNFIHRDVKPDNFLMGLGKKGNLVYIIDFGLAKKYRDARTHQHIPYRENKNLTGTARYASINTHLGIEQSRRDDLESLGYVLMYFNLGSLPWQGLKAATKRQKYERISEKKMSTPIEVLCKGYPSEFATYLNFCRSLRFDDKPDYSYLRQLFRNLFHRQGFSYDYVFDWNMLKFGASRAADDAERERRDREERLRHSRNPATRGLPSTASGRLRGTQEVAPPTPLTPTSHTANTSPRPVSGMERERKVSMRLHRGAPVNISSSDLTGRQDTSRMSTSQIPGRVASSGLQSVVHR
G protein-coupled receptor kinase 4 (Homo sapiens), sequence (P32298 whole entry, looked up): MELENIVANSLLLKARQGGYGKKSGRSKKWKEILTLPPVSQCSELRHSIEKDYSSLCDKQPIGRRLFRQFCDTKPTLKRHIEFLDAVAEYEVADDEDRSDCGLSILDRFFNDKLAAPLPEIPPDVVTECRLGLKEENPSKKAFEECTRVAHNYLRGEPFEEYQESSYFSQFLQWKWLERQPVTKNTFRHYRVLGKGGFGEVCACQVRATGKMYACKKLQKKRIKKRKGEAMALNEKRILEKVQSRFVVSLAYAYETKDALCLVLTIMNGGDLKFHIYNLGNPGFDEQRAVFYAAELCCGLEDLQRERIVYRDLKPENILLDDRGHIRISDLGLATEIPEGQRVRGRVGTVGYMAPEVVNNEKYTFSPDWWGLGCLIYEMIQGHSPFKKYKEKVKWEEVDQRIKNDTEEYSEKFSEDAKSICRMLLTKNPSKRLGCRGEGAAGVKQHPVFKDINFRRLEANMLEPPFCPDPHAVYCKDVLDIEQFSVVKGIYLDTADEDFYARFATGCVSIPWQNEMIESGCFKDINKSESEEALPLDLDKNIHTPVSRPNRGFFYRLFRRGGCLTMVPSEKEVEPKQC

Structure (SMILES): CN(C)C/C=C/C(=O)Nc1ccc(C(=O)N2CCCC(Nc3ncc(Cl)c(-c4c[nH]c5ccccc45)n3)C2)cc1 (stereo not given)
% of control [1]: 87%

% of inhibition [2]: -30.5%
% of inhibition [3]: -50.1%
% of inhibition [4]: -33.9%
% of control [5]: -1.8%
Structure (SMILES): Cn1cc(-n2cnc3c(NCc4nc5cc(Cl)c(Cl)cc5[nH]4)nc(N4CCOCC4)nc32)cn1

Structure (SMILES): Nc1cnc(N2CCc3cc(S(=O)(=O)Nc4c(F)cc(Cl)cc4F)cc(N4CCCC4=O)c32)nc1 [TP-020n]
% of control [6]: 70%

Structure (SMILES): N#Cc1cccc(-c2c[nH]c3ncnc(N4CCOCC4)c23)c1
% of inhibition [7]: 36%

Structure (SMILES): CNC(=O)Nc1ccc(-c2nc(N3CC4CCC(C3)O4)c3cnn(C4CCC5(CC4)OCCO5)c3n2)cc1
% of control [8]: 92%
% of control [9]: 100%

Structure (SMILES): O=C(NOC[C@H](O)CO)c1ccc(F)c(F)c1Nc1ccc(I)cc1F
% of control [10]: 77%
